Consider three molecules from ChEMBL document CHEMBL1151640, “Benzoxazolinone, 2,4-Dihydroxy-1,4-benzoxazin-3-one, and Its Glucoside from Acanthus mollis Seeds Inhibit Velvetleaf Germination and Growth” (1985).

For test [1], the system named is Abutilon theophrasti. As to the kind of experiment: Phytotoxicity against Abutilon theophrasti assessed as seed germination at 0.8 mM after 4 days relative to control. It is filed as functional.
In test [2] the test system is Abutilon theophrasti. As to the kind of experiment: Phytotoxicity against Abutilon theophrasti assessed as seed germination at 0.8 mM after 2 days relative to control. Format: functional.
The subject of test [3] is Abutilon theophrasti. As to the kind of experiment: Phytotoxicity against Abutilon theophrasti assessed as seed germination at 1 mM after 2 days relative to control. Format: functional.
Test [4] has as its system Abutilon theophrasti. As to the kind of experiment: Phytotoxicity against Abutilon theophrasti assessed as seed germination at 0.6 mM after 4 days relative to control. Format: functional.
For test [5], the system named is Abutilon theophrasti. As to the kind of experiment: Phytotoxicity against Abutilon theophrasti assessed as seed germination at 2 mM after 4 days relative to control. Format: functional.
Test [6] deals with Abutilon theophrasti. As to the kind of experiment: Phytotoxicity against Abutilon theophrasti assessed as seed germination at 0.6 mM after 2 days relative to control. Format: functional.
Test [7] deals with Abutilon theophrasti. As to the kind of experiment: Phytotoxicity against Abutilon theophrasti assessed as seed germination at 2 mM after 2 days relative to control. Format: functional.
Test [8] deals with Abutilon theophrasti. Kind of test: Phytotoxicity against Abutilon theophrasti assessed as seed germination at 1 mM after 4 days relative to control. Format: functional.
The subject of test [9] is Abutilon theophrasti. Kind of test: Phytotoxicity against Abutilon theophrasti assessed as seed germination at 2 mM after 2 weeks. Format: functional, organism-based.
Test [10] relates to Abutilon theophrasti. As to the kind of experiment: Phytotoxicity against Abutilon theophrasti assessed as seed germination at 5 mM after 2 days relative to control. Format: functional.
Test [11] deals with Abutilon theophrasti. As to the kind of experiment: Phytotoxicity against Abutilon theophrasti assessed as seed germination at 5 mM after 4 days relative to control. It is filed as functional.
Test [12] deals with Abutilon theophrasti. Kind of test: Phytotoxicity against Abutilon theophrasti assessed as seed germination at 0.5 mM after 2 days relative to control. Format: functional.
Test [13] relates to Abutilon theophrasti. As to the kind of experiment: Phytotoxicity against Abutilon theophrasti assessed as seed germination at 0.5 mM after 4 days relative to control. It is filed as functional.

`O=C1C(O)Oc2ccccc2N1O` (stereo unspecified): the Activity is recorded as 82% in test [1]; 40% in [2]; 6% in test [3]; 97% in [4]; 0% in test [5]; 59% in test [6]. Further, the Activity in [7] was 0%; in test [8], 72%; in [9] it was “Toxic”.

As to `O=C1C(O[C@@H]2O[C@H](CO)[C@@H](O)[C@H](O)[C@H]2O)Oc2ccccc2N1O` (stereo partly specified), the Activity in test [10] was found to be 89%.

On to `O=c1[nH]c2ccccc2o1` [BENZOXAZOLINONE], for which the Activity in test [11] stood at 75%; in test [3] it was 111%; in [10] it was 14%; in test [12] it was 118%; in test [13], 125%; in test [8], 116%.
